Assays:
[1] = Solubility in phosphate buffered saline; assay type: physicochemical; settings: PBS with 1% DMSO
Text: Fig. 2 (A) Chemical structures of the investigated naphthoquinone-based metal(arenes) in this study.

[2] = Reactivity with mixture of small biological nucleophiles by ESI-MS; assay type: physicochemical; settings: for reaction with nucleophile mixture within 24 h: 50 μM; for Intact compound after 24 h, nucleophile mixture: equimolar Cys/Met/His/ATP/GTP, each 50 μM, ESI-MS
Protocol: Then, the compounds were analogously incubated with an equimolar mixture of cysteine, methionine, histidine, adenosine triphosphate and guanosine triphosphate to verify coordination preferences for amino acids over nucleotides. The reactivity of the four compounds was qualitatively similar, characterized by release of the NQ ligands and formation of mainly methionine and histidine-adducts with the metal(arene) (ESI, Fig. S13 ^†). No metalation of the nucleotides was observed. In contrast to other O,O-ligand systems, which are typically deactivated within minutes by ligand release under such conditions,[51,52] the N,O,O-tridentate organometallics studied here were characterized by increased stability. […] Again, the 3-Morph-NQ ligand was detected upon release from the metal centre, but hydrolysis dimers were not observed in the presence of bionucleophiles (ESI, Fig. S13 ^†). The reactivity of the compounds towards an equimolar concentration of the model protein ubiquitin was characterized by similar kinetic behaviours and reactivity (ESI, Fig. S14 ^†). […]
aliquot was used for stability testing of the respective test substance in aqueous solution. […]
2b were equimolarly added (50 µM) to a mixture of three amino acids and two nucleotides (Cys/Met/His/ATP/GTP; each 50 µM in aqueous solution) to test the interaction with small biological nucleophiles. All samples were mixed and incubated in a shaking incubator at 37 °C with speed set to 1000 rpm in the dark (Eppendorf ThermoMixer® C). After 1.5 h, 24 h and 72 h, 300 µL per sample were transferred to fresh reaction vessels, immediately frozen in liquid N2 and stored at –20 °C until measurement.
Samples were diluted to a concentration of 2.5 µM with an organic eluent (49.5% v/v acetonitrile, 49.5% v/v methanol,1% v/v H2O), except ubiquitin containing samples which were diluted to the same concentration with acidified H2O (0.1% v/v formic acid). The samples were then analysed by flow-injection using an amazon speed ETD ion trap (Bruker Daltonics) in the positive ion mode over 0.4 min using the following experimental parameters: HV capillary ±4.5 kV, end plate offset –500 V, dry temp 180 °C, nebulizer 3 bar, dry gas 5 L min-1, scan range m/z 200–1400, target mass m/z 900, flow rate 5 µL min-1. For ubiquitin containing samples, the scan range was adapted to m/z 300– 2200 with a target mass of m/z 1100. Data

CT26 colon carcinoma = assay: Anti-tumour activity in subcutaneous CT26 allografts; assay type: in vivo, BALB/c mice; settings: for tumour growth compared to vehicle-treated controls: i.p. over two weeks, 10 mg kg^−1 (1a, 2a), 30 mg kg^−1 (1b, 2b)
Protocol: Tumour inhibition of the four compounds was evaluated in subcutaneous CT26 allografts using BALB/c mice, since it represents an appropriate immune competent mouse model to study colon carcinoma. The compounds were administered intraperitoneally (i.p.) over two weeks at doses of 10 mg kg^−1 for the 3-Et-NQ complexes and 30 mg kg^−1 for the 3-Morph-NQ complexes. The different dosages were selected as maximal tolerable doses (MTDs) after an initial toxicity screen (data not shown).
Animals. All experiments were carried out with male Balb/c mice according to the regulation of the Ethics Committee for the Care and Use of Laboratory Animals at the Medical University Vienna (BMWF-2022-0.770.291), the guidelines from the Austrian Animal Science Association and the Federation of European Laboratory Animal Science Associations (FELASA). The animals were kept in a pathogen-free conditions, controlled environment with 12 h light–dark cycle with ad libitum access to food and water. Every procedure was done in a laminar airflow […]
Treatment. CT-26 cells ([…] in 50 μL serum-free medium) were injected subcutaneously (s.c.) into the right flank of ten– to eleven-week-old male Balb/c mice. Three days after cell injection, all compounds (dissolved in 10% DMSO in water) were administered […]
1b/2b. Regarding anticancer activity experiments, mice were treated on 5 consecutive days […]
over 2 weeks. […]

[3] = Stability study by UV-Vis spectroscopy in PBS (1% DMSO); assay type: physicochemical; settings: 40 μM 1a/2a, 80 μM 1b/2b
Protocol: Stability Study by UV-Vis Spectroscopy
All four compounds were freshly diluted in PBS (1% DMSO) from a DMSO stock solution at […]
80 µM. The stability of the compounds was monitored in a UV-Vis spectrophotometer (Perkin Elmer lambda 35 photometer) over 96 h by acquiring an UV-Vis spectrum every 30 mins. The percentage of the remaining intact compound was calculated by the ratio of the maximum absorbance of the tridentate complexes’ characteristic absorption band around 350– 370 nm after a given timepoint (A) compared to the one directly after dilution (A0). […]

[4] = test system: SW480 colon carcinoma cell line; assay: MTT viability assay, SW480, 24 h; assay type: cell-based, human; settings: for IC50: 24 h incubation; for potency compared to morpholine-analogues 1b and 2b: SW480, 24 h
Protocol: cultured in adherent T75 flasks (Sarstedt) in a humidified incubator at 37 °C and 5% CO2 (HeraCell150i, Thermo Fisher Scientific) and subcultured three times a week as the cells reached 75–80% growth area occupied. […]
Trypsin/EDTA solution (0.25%, Sigma-Aldrich) was used for detachment of all […]
SW480 human colon carcinoma cells (4.000 cells/well for the ethyl complexes; 4.000 and 10.000 cells/well for the morpholino complexes) were seeded in flat-bottom 96-well plates (Corning) and incubated at 37 °C for 24 h in a humidified incubator at 5% CO2 (HeraCell150i, Thermo Fisher Scientific). Stock solutions of the compounds were freshly prepared in DMSO […]
10 µM in complete cell culture medium for the ethyl compounds and 5, 10, 20, 40, 60, 80, 120, 160 µM for the morpholino compounds (final concentration of DMSO ≤0.4% v/v). The cells were incubated with the compounds for 24 h and 72 h. Then, the cell metabolism was colorimetrically determined using 3-(4,5-dimethylthiazol-2-yl)-2,5-diphenyl tetrazolium bromide (MTT). For this purpose, MTT reagent (20 µL, 5 mg mL-1 in phosphate-buffered saline, PBS) was added to each well and further incubated for 4 h. The medium was gently […]
removed and 100 µL DMSO was added to dissolve the formazan crystals. Photometric quantification was performed at 570 nm with a Multiskan Go 1510 photometer (Thermo Fisher […]
The absorbances were blank corrected and converted to relative proliferation. The IC50 values (concentration of 50% growth inhibition) were obtained using a sigmoidal fit of the experimental data and calculated as the mean ± standard deviation of at least three independent experiments, each in at least triplicates. […]
(each 3.000 cells/well) were seeded in 100 µL/well into flat-bottom 96-well plates (Starlab) and incubated at 37 °C for 24 h in a humidified incubator (Binder CB210) at 5% CO2. Complex 1a, bafilomycin or bortezomib were dissolved in DMSO and diluted in appropriate cell culture medium to respective concentrations. After 24 h of treatment, plates were measured by MTT assay as described above.
Colon carcinoma cells (SW480) were seeded into 12-well plates (CytoOne, Starlab) in densities of 1×10^5 cells per well (in 1 mL complete medium). After 24 h, cells were treated with […]

| Structure (SMILES) | Solubility in PBS [1] | reaction with nucleophile mixture within 24 h [2] | Intact compound after 24 h, nucleophile mixture [2] | tumour growth compared to vehicle-treated controls (CT26 colon carcinoma) | intact complex, UV-vis, 24 h [3] | intact complex, UV-vis, 96 h [3] | IC50 [4] | reduction in tumour volume on day 13 (CT26 colon carcinoma; 10 mg kg^−1 i.p. over two weeks, vs vehicle) | tumour inhibition, 1-week experiment (CT26 colon carcinoma; 10 mg kg^−1 i.p., five consecutive days) | potency compared to morpholine-analogues 1b and 2b [4] |
| --- | --- | --- | --- | --- | --- | --- | --- | --- | --- | --- |
| Cc1ccc(C(C)C)cc1.O=C1C(CN2CCOCC2)=C2[O][Ru][O]C2(n2cccn2)c2ccccc21 (stereo not drawn) [Compound 1b] | 1220 µM | reacted nearly quantitatively | 7% | inactive | 76% | 64% | 38000 ± 5000 nM |  |  |  |
| CCC1=C2[O][Ru][O]C2(n2cccn2)c2ccccc2C1=O.Cc1ccc(C(C)C)cc1 (stereo not drawn) [Compound 1a, [(3-ethyl-4-oxo-(pyrazolyl)-dihydronaphthalene)(cymene)ruthenium(II)]] | 170 µM | reacted nearly quantitatively | 4% | significantly inhibit tumour growth | 75% | 53% | 620 ± 40 nM | 44% | statistically significant tumour inhibition | > 30 times |
| CCC1=C2[O][Os][O]C2(n2cccn2)c2ccccc2C1=O.Cc1ccc(C(C)C)cc1 (stereo not drawn) [Compound 2a] | 210 µM |  | 19% | significantly inhibit tumour growth | 85% | 61% | 1200 ± 100 nM |  |  | > 30 times |

Reference: publication PMC12320299 (Chemical Science, 2025)
